Laboratory results from patent US10087219B2, “Human alpha-defensin 5 variant and uses thereof” (priority 2016, dated 2018).
Positions of bridges follow the written chain, without caps; N, C: chain ends. Residues, ends and D or L forms follow the SMILES beside them. No end group written: not given here. *: point of attachment. Myristoyl = CCCCCCCCCCCCCC(=O)*; Lauroyl = CCCCCCCCCCCC(=O)*

Assays:
THP-1 cells = assay: Release of IL-1β mature body from LPS-stimulated THP-1 macrophages (immunoblotting); format: cell-based; settings: LPS 100 ng/ml 3 h, FIG. 4
Protocol: THP-1 cells were cultured with RPMI-1640 culture media added with 10% fetal calf serum, and then inoculated on 24-well plate during logarithmic phase, 10^6 cells per well, added with PMA with final concentration of 100 nM for stimulating for 12 h so that cell adhered wall.
Media was exchanged with […] added with 10% fetal calf serum, and stood for 24 hours.
The following groups were set: blank group, LPS stimulation group, LPS+5 mM ATP group (positive control group), LPS+HD-5 group, LPS+HD-5Myr group, LPS+HD-5Lau group. 100 ng/ml lipopolysaccharide (LPS) was used or not to perform stimulation for 3 h, then gently washed twice with 1640 culture media, and then added or not with HD-5Myr or HD-5Lau with final concentration of 10 μg/ml and 20 μg/ml, or ATP with final concentration of 5 mM, or HD-5 with final concentration of 100 μg/ml and 200 μg/ml; and supernatant of each group was collected.
The proteins in supernatant in same volume were concentrated, lysed with protein lysis solution, and then release conditions of IL-1β mature body for different groups were compared by immunoblotting method.

human red cells = assay: Hemolysis of human red cells; format: cell-based; settings: 25 μg/ml; 4% human red cells, 37° C., 1 h; 10% Triton X-100 = 100% hemolysis; FIG. 3
Protocol: The hemolysis effects of antibacterial peptide HD-5 as well as its variants HD-5Myr and HD-5Lau on human red cell were measured.
Fresh human blood sample was collected, heparinized then centrifuged to take red cell layer;
washed with PBS for 3 times;
to EP tube, HD-5 and its variants with final concentrations of 50 μg/ml and 25 μg/ml were added separately; the positive control was added with 10% Triton X-100 in same volume, while the negative control was added with PBS in same volume.
4% human red cells were added separately, incubated at 37° C. for 1 h;
centrifuged, supernatant in same volume was taken and placed in 96-well plate, OD value at 540 nm was measured; by using the positive control as 100% hemolysis, and using the negative control as 0% hemolysis, the hemolysis rate for each well was calculated: Red cell hemolysis rate %=Test well OD value−negative control well OD valuePositive control well OD value−negative control OD×100%

[1] = Micellar structure formation by transmission electron microscopy; format: physicochemical; settings: uranyl acetate staining, FIG. 1
Excerpt: Small amounts of HD-5, HD-5Myr and HD-5Lau samples were taken and dropped on copper grid used for electron microscope, excessive samples were sucked out with filter paper, after being dried at room temperature, uranyl acetate was used for staining.

S. aureus ATCC 25923 = assay: Antibacterial activity (LD90, optical density growth kinetics) against S. aureus ATCC 25923; format: cell-based, Staphylococcus aureus; settings: concentration required for killing 90% bacteria, 2 h incubation at 37° C.
Protocol: (§1) According to measurement of antibacterial activity of antibacterial peptides, the antibacterial potencies of the variants HD-5Myr, HD-Lau and MyrHD-5 of HD-5 as synthesized in Example 2 as well as natural HD-5 were compared.
(§2) The experiments were carried out according to the method for detecting antibacterial activity of antibacterial peptide as reported by Ericksen et al in 2005 (Ericksen B, et al., Antibacterial activity and specificity of the six human {alpha}-defensins. Antimicrob Agents Chemother, 2005).
(§3) Bacteria were inoculated on LB agar plate, and placed in 37° C. constant temperature incubator until bacterial colonies grew. […] Optical density at 600 nm was measured with ELIASA, 1 OD600=4×10^8 CFU/ml, and the bacteria to be tested were diluted with sterile water to 2×10^6 CFU/ml.
(§4) To a sterile 96-plate, 50 μl of sterile water was added to each well, and then A1 well was added with an antibacterial peptide HD-5 sample diluted to a certain concentration. […] Optical density values at 600 nm were measured every 5 minutes in ELIASA at constant temperature of 37° C.
(§5) The measured optical density value minus the optical density value at time 0, and logarithm thereof was taken. […] According to this linear rule, bactericidal rates for different groups were calculated. […]

E. coli ATCC 25922 = assay: Antibacterial activity (LD90, optical density growth kinetics) against E. coli ATCC 25922; format: cell-based, Escherichia coli; settings: concentration required for killing 90% bacteria, 2 h incubation at 37° C.
Protocol: as §1, §2, §3, §4, §5

MRSA-1 = assay: Antibacterial activity (LD90, optical density growth kinetics) against MRSA-1; format: cell-based, methicillin-resistant Staphylococcus aureus; settings: for LD90: MRSA-1 isolated in clinic, concentration required for killing 90% bacteria, 2 h incubation at 37° C.
Protocol: as §1, §2
Bacteria were inoculated on LB agar plate, and placed in 37° C. constant temperature incubator until bacterial colonies grew. Single colony was picked out, inoculated in 5 ml of LB culture media, and shake cultured at constant temperature of 37° C. for 4-6 h. It was then washed with sterile water twice. Optical density at 600 nm was measured with ELIASA, 1 OD600=4×10^8 CFU/ml, and the bacteria to be tested were diluted with sterile water to 2×10^6 CFU/ml.
To a sterile 96-plate, 50 μl of sterile water was added to each well, and then A1 well was added with an antibacterial peptide HD-5 sample diluted to a certain concentration. After being mixed evenly, 50 μl was taken therefrom and added to A2 well, thereby being diluted in multiple proportion manner in order, and 50 μl was sucked out from A6 well and discarded. By using the same method, MyrHD-5, HD-5Myr and HD-5Lau samples were diluted. The control well was 50 μl sterile water. Then, to each well, 50 μl of 2×10^6 CFU/ml bacteria was added, and shake cultured at constant temperature of 37° C. for 2 h. Then, 100 μl of LB culture media with double concentration was added separately. Optical density values at 600 nm were measured every 5 minutes in ELIASA at constant temperature of 37° C.
as §5

| Compound | hemolysis rate (human red cells) [%] | LD90 (S. aureus ATCC 25923) [µg/mL] | LD90 (E. coli ATCC 25922) [µg/mL] | LD90 (MRSA-1) [µg/mL] | further results |
| --- | --- | --- | --- | --- | --- |
| Nc1ncnc2c1ncn2[C@@H]1O[C@H](COP(=O)(O)OP(=O)(O)OP(=O)(O)O)[C@@H](O)[C@H]1O [ATP] | – | – | – | – | Release of IL-1β mature body (THP-1 cells; then 5 mM ATP (positive control)): exhibited release of IL-1β mature body |
| CCCCCCCCCCCC(=O)NCCCC[C@H](NC(=O)CNC(=O)[C@H](CCCNC(=N)N)NC(=O)[C@@H]1CSSC[C@H](NC(=O)[C@@H](NC(=O)[C@H](C)N)[C@@H](C)O)C(=O)N[C@@H](Cc2ccc(O)cc2)C(=O)N[C@H]2CSSC[C@@H]3NC(=O)[C@H](C(C)C)NC(=O)CNC(=O)[C@H](CO)NC(=O)[C@H](CC(C)C)NC(=O)[C@H](CO)NC(=O)[C@H](CCC(=O)O)NC(=O)[C@H](CCCNC(=N)N)NC(=O)[C@H]([C@@H](C)O)NC(=O)[C@H](C)NC(=O)[C@H](CSSC[C@H](NC(=O)[C@H](CC(C)C)NC(=O)[C@H](CCCNC(=N)N)NC(=O)[C@H](Cc4ccc(O)cc4)NC(=O)[C@H](CC(C)C)NC(=O)[C@H](CCCNC(=N)N)NC(=O)CNC(=O)[C@H](CO)NC(=O)[C@H]([C@@H](C)CC)NC(=O)[C@H](CCC(=O)O)NC3=O)C(=O)N1)NC(=O)[C@H](CCCNC(=N)N)NC(=O)CNC(=O)[C@H]([C@@H](C)O)NC(=O)[C@H](CCCNC(=N)N)NC2=O)C(N)=O [HD-5Lau] (H-ATCYCRTGRCATRESLSGVCEISGRLYRLCCRGK(Lauroyl)-NH2; disulfide 3-31, 5-20, 10-30) | 2.24 | – | – | – | – |
| CCCCCCCCCCCCCC(=O)NCCCC[C@H](NC(=O)CNC(=O)[C@H](CCCNC(=N)N)NC(=O)[C@@H]1CSSC[C@H](NC(=O)[C@@H](NC(=O)[C@H](C)N)[C@@H](C)O)C(=O)N[C@@H](Cc2ccc(O)cc2)C(=O)N[C@H]2CSSC[C@@H]3NC(=O)[C@H](C(C)C)NC(=O)CNC(=O)[C@H](CO)NC(=O)[C@H](CC(C)C)NC(=O)[C@H](CO)NC(=O)[C@H](CCC(=O)O)NC(=O)[C@H](CCCNC(=N)N)NC(=O)[C@H]([C@@H](C)O)NC(=O)[C@H](C)NC(=O)[C@H](CSSC[C@H](NC(=O)[C@H](CC(C)C)NC(=O)[C@H](CCCNC(=N)N)NC(=O)[C@H](Cc4ccc(O)cc4)NC(=O)[C@H](CC(C)C)NC(=O)[C@H](CCCNC(=N)N)NC(=O)CNC(=O)[C@H](CO)NC(=O)[C@H]([C@@H](C)CC)NC(=O)[C@H](CCC(=O)O)NC3=O)C(=O)N1)NC(=O)[C@H](CCCNC(=N)N)NC(=O)CNC(=O)[C@H]([C@@H](C)O)NC(=O)[C@H](CCCNC(=N)N)NC2=O)C(N)=O [HD-5Myr] (H-ATCYCRTGRCATRESLSGVCEISGRLYRLCCRGK(Myristoyl)-NH2; disulfide 3-31, 5-20, 10-30) | 6.83 | – | – | – | – |
| Human defensin-5 (ATCYCRTGRCATRESLSGVCEISGRLYRLCCR; disulfide 10-30, 5-20, 3-31; listed as Homo sapiens) [HD-5, the modification template] | – | >12.5 | 6.691 | 5.850 | Release of IL-1β mature body (THP-1 cells; then peptide at 100 μg/ml and 200 μg/ml): could promote the release of IL-1β mature body; Formation of micellar structure [1]: micellar structure was not observed; LD90 against methicillin-resistant Staphylococcus aureus compared with LD90 against Staphylococcus aureus ATCC 25923 (MRSA-1; MRSA versus S. aureus ATCC 25923): far lower |
| MyrHD-5: 33-residue N-terminally modified HD-5 variant (SEQ ID NO: 3), Gly1 amino group linked to a myristoyl (Myristoyl-GATCYCRTGRCATRESLSGVCEISGRLYRLCCR; disulfide 11-31, 6-21, 4-32) | – | 6.280 | >12.5 | 1.400 | – |
